# Results published in paper PMC12298624, “Anti-Infective Properties, Cytotoxicity, and In Silico ADME Parameters of Novel 4′-(Piperazin-1-yl)benzanilides” (Pharmaceuticals, 2025).
# Like-named read-outs stand apart in the source and are kept apart here.
# Tests used:
# P. falciparum NF54 = test: In vitro microplate assay against P. falciparum NF54 (3H-hypoxanthine incorporation); assay type: cell-based, Plasmodium falciparum; conditions: Plasmodium falciparum
# Description: Serial drug dilutions of eleven 3-fold dilution steps covering a range from 100 to 0.002 µg/mL were prepared. […] After 48 h of incubation time, 0.05 mL of ^3H-hypoxanthine (=0.5 µCi) was added to each well of the plate. The plates were incubated for a further 24 h under the same conditions. Plates were then harvested using a BetaplateTM cell harvester (Wallac, Zurich, Switzerland). Red blood cells were transferred onto a glass fiber filter and then washed with distilled aqua demin. The dried filters were inserted into a plastic foil with 10 mL of scintillation fluid and counted in a BetaplateTM liquid scintillation counter (Wallac, Zurich, Switzerland). IC50 values were calculated from sigmoidal inhibition curves by linear regression using Microsoft Excel. […] Louis, MO, USA) was used as control.
# [1] = Resazurin-based in vitro cytotoxicity with L-6 cells; assay type: cell-based, rat
# Description: Serial drug dilutions of eleven 3-fold dilution steps covering a range from 100 to 0.002 µg/mL were prepared. After 70 h of incubation, the plates were inspected under an inverted microscope to assure growth of the controls and sterile conditions. […] The plates were read with a Spectramax Gemini XS microplate fluorometer (Molecular Devices Cooperation, Sunnyvale, CA, USA) using an excitation wavelength of 536 nm and an emission wavelength of 588 nm. IC50 values were calculated by linear regression from the sigmoidal dose–inhibition curves using SoftmaxPro software Version 8.2.1 (Molecular Devices Cooperation, Sunnyvale, CA, USA). Podophyllotoxin (Sigma P4405) was used as control.
# [2] = Parallel artificial membrane permeability assay (PAMPA); conditions: for Papp at 5 h, 200 µM: PAMPA, pH 7.4, Pe, PBS pH 7.4, 200 µM, room temperature; for Pe: PAMPA standards
# Description: With the high-throughput PAMPA the newly synthesized compounds were tested for their passive permeability through cell membranes without the influence of efflux pumps or transporter proteins. The assay was performed using a Corning® Gentest^TM Precoated PAMPA Plate System (Corning, Glendale, AZ, USA) with 96-well polystyrene plates. The bottom of the acceptor plate consists of a porous membrane, whereby the pores are lined with a lipid–oil–lipid triple layer. Stock solutions of each test compound at 10 mM were prepared in DMSO or methanol and diluted with phosphate-buffered saline (PBS at a pH of 7.4) to a final concentration of 200 µM. […] The donor plate (bottom plate) was filled with the compound solutions, whereby all compounds were tested in quadruplicates. Each well of the acceptor plate (top plate) was filled with PBS buffer. Donor and acceptor plates were combined and incubated at room temperature for 5 h. After that, the plates were separated and 150 µL of each well of both plates were transferred to 96-well UV plates (Greiner Bio-One). Absorption at different wavelengths covering a range from 200 to 300 nm was measured using a SpectraMax M3 UV plate reader. […] The plates were analyzed at the wavelength where the R2 value of the calibration curve was higher than 0.99 [47].
# Recovery of compounds from donor and acceptor wells (mass retention) was calculated as shown in the equation below. Data were only accepted when recovery exceeded 70%. The equation is as follows:(3) R=1−[cDt×VD+cAt×VA]/(c0×VD) where
# [3] = Resazurin-based in vitro cytotoxicity with HepG2 cells; assay type: cell-based, human; conditions: HepG2 cells; human hepatocarcinoma cells, 48 h
# Description: The HepG2 cells were washed with DPBS (Dulbecco’s PBS without calcium and magnesium, Gibco, Cat #21600-044) and trypsinized with trypsin solution in DPBS. Trypsinization was stopped by adding culture medium, and after being stained with Trypan Blue (SORS Ukraine) cells were counted using a counting chamber (Hausser Scientific, Cat #3500). The cell suspension was placed in a falcon tube containing plating medium DMEM/High glucose with 1% fetal bovine serum, 100 units/mL penicillin, and 100 µg/mL streptomycin. Cells at a density of 250,000 cells/mL were seeded in sterile 384-well plates (Greiner Bio-One, Cat #781091) in a volume of […] and incubated at 37 °C and 5% CO2. Serial dilutions of ten 3-fold dilution steps of test and reference compounds covering a range from 100.0 to 0.005 µM were added to the wells, followed by incubation at 37 °C and 5% CO2 for 48 h. Then, resazurin (50 µM final concentration) was added and plates were incubated for another 3 h. The plates were read with a SpectraMax microplate reader (Molecular Devices Cooperation, Sunnyvale, CA, USA)) using an extinction wavelength of 555 nm and an emission wavelength of 570 nm. IC50 values were calculated using GraphPad Prism 9.0 charting software. Doxorubicin (Sigma Aldrich D1515) was used as control.
# A. baumannii ATCC 19606 = test: MIC/MBC microbroth dilution (EUCAST); assay type: cell-based, Acinetobacter baumannii; conditions: Acinetobacter baumannii
# Description: (§1) Minimum inhibitory concentrations (MIC values) were obtained using the microbroth dilution method as stated in the EUCAST guidelines. Tests were conducted on cation adjusted Mueller–Hinton broth (caMHB) or agar (caMHA). These were prepared and stored following the manufacturer’s guidelines. Biological organisms were prepared via growth on either Luria–Bertani (LB) or cation adjusted Mueller–Hinton agar plates. These were grown for 24 h at 37 °C, except for Micrococcus luteus where MICs took longer to grow and as a consequence were read after 48 h once a clear positive control could be observed. For the MIC experiment, the bacteria were prepared using the McFarland 0.5 standard and diluted 1 in 100 or 1 in 10 in caMHB following EUCAST and CSLI guidelines for the preparation of bacteria. Testing of the compounds using the microbroth dilution method took place in 96-well plates. Serial 2-fold dilutions of compounds in caMHB covering a range from 256 µg/mL to 0.25 µg/mL were prepared. Bacteria preparations (McFarland) were added to the compound dilutions, further halving the compound concentrations. The plate was then incubated for 18 h at 37 °C. Controls for the MIC experiments included a bacterial growth (positive) control of bacteria and caMHB only and a media only (negative) control. After incubation, the plates were read, whereby the positive control of bacteria was visible and the negative control was clear of contamination. The last clear well, where there is no growth of bacteria, was counted as the MIC value. […] The lowest concentration without any bacterial growth was counted as the MBC value. The following pathogens were used: Pseudomonas aeruginosa NCTC 13437, Escherichia coli NCTC 13353, Bacillus subtilis 168a, Serratia marcescens NCTC 9940, Micrococcus luteus ATCC 10240, Staphylococcus aureus JE2 USA 300, Acinetobacter baumannii ATCC 19606, and Klebsiella pneumoniae ATCC 700603. A concentration range of 256 µg/mL to 0.25 µg/mL of a combination of ciprofloxacin and meropenem against E. coli 25922 was used as an antibiotic control to ensure correct dilution and performance of the assay.
# B. subtilis 168a = test: MIC/MBC microbroth dilution (EUCAST); assay type: cell-based, Bacillus subtilis; conditions: Bacillus subtilis, 168A
# Description: as §1
# S. marcescens NCTC 9940 = test: MIC/MBC microbroth dilution (EUCAST); assay type: cell-based; conditions: Serratia marcescens, NCTC9940
# Description: as §1
# S. aureus JE2 USA 300 = test: MIC/MBC microbroth dilution (EUCAST); assay type: cell-based; conditions: Staphylococcus aureus, USA300, S. aureus JE2 USA 300
# Description: as §1
# [4] = system: K. pneumoniae ATCC 700603; test: MIC/MBC microbroth dilution (EUCAST); assay type: cell-based; conditions: Klebsiella pneumoniae, ATCC700603
# Description: as §1
# P. aeruginosa NCTC 13437 = test: MIC/MBC microbroth dilution (EUCAST); assay type: cell-based; conditions: Pseudomonas aeruginosa, NCTC13437
# Description: as §1
# E. coli NCTC 13353 = test: MIC/MBC microbroth dilution (EUCAST); assay type: cell-based, Escherichia coli; conditions: Escherichia coli
# Description: as §1
# [5] = rat skeletal myofibroblasts, read-out: Cytotoxicity L-6 Cells IC50
# [6] = NF54, chloroquine-sensitive strain NF54, erythrocytic stages, read-out: P.f.NF54 IC50
Compound,IC50 (P. falciparum NF54; [6]),"Papp at 5 h, 200 µM [2]",IC50 at 70 h ([1]; rat),IC50 at 48 h [3],also measured
"CCN(CC)CCCC(C)Nc1ccnc2cc(Cl)ccc12 (centres unmarked) [CQ, chloroquine, reference compound]",,,,,"IC50 (P. falciparum NF54; NF54, read-out: P.f.NF54 IC50): 0.009 µM; IC50 at 70 h [1, 5]: 90.9 µM"
"O=C(Nc1ccccc1N1CCOCC1)c1cccc(C(F)(F)F)c1Oc1ccc(F)cc1 [Compound 32, 2-(4-Fluorophenoxy)-N-[2-(morpholin-4-yl)phenyl]-3-(trifluoromethyl)benzamide]",3.04 µM,6.63 ×10⁻⁶ cm/s,161 µM,> 100 µM,
"O=C(Nc1ccc(N2CCOCC2)cc1)c1cccc(C(F)(F)F)c1Oc1ccc(F)cc1 [Compound 33, 2-(4-Fluorophenoxy)-N-[4-(morpholin-4-yl)phenyl]-3-(trifluoromethyl)benzamide]",6.81 µM,3.92 ×10⁻⁶ cm/s,195 µM,35.3 µM,
"CN(C)c1ccccc1NC(=O)c1cccc(C(F)(F)F)c1Oc1ccc(F)cc1 [Compound 35, N-[2-(Dimethylamino)phenyl]-2-(4-fluorophenoxy)-3-(trifluoromethyl)benzamide]",4.4 µM,,25.1 µM,,
"CN(C)c1ccc(NC(=O)c2cccc(C(F)(F)F)c2Oc2ccc(F)cc2)cc1 [Compound 36, N-[4-(Dimethylamino)phenyl]-2-(4-fluorophenoxy)-3-(trifluoromethyl)benzamide]",7.58 µM,,239 µM,> 100 µM,
"O=C(Nc1ccc(N2CCNCC2)cc1)c1cccc(C(F)(F)F)c1 [Compound 66, N-[4-(Piperazin-1-yl)phenyl]-3-(trifluoromethyl)benzamide]",2.6 µM,3.91 ×10⁻⁶ cm/s,41.5 µM,11.8 µM,
"COc1cccc2c1C(=O)c1c(O)c3c(c(O)c1C2=O)C[C@@](O)(C(=O)CO)C[C@@H]3O[C@H]1C[C@H](N)[C@H](O)[C@H](C)O1 [DOX, doxorubicin, reference compound]",,,,0.3 µM,
"COc1cc([C@@H]2c3cc4c(cc3[C@H](O)[C@H]3COC(=O)[C@H]23)OCO4)cc(OC)c1OC [POD, podophyllotoxin, reference compound]",,,,,"IC50 at 70 h [1, 5]: 0.012 µM"
"Cn1c(=O)c2c(ncn2C)n(C)c1=O [caffeine, reference compound]",,,,,Pe [2]: 8 ×10⁻⁶ cm/s
"NS(=O)(=O)c1cc2c(cc1Cl)NCNS2(=O)=O [hydrochlorothiazide, reference compound]",,,,,Pe [2]: 0.09 ×10⁻⁶ cm/s

# Now from value to compound, other results behind:
IC50 (P. falciparum NF54; [6]),"Papp at 5 h, 200 µM [2]",Compound,IC50 at 70 h ([1]; rat),IC50 at 48 h [3],also measured
14 µM,,"CN1CCN(c2ccccc2NC(=O)c2cccc(C(F)(F)F)c2Oc2ccc(F)cc2)CC1 [Compound 31, 2-(4-Fluorophenoxy)-N-[2-(4-methylpiperazin-1-yl)phenyl]-3-(trifluoromethyl)benzamide]",120 µM,,
51.8 µM,1.82 ×10⁻⁶ cm/s,"CC(C)(C)OC(=O)N1CCN(C(=O)c2cccc(C(F)(F)F)c2Oc2ccc(F)cc2)CC1 [Compound 50, tert-Butyl-4-[2-(4-fluorophenoxy)-3-(trifluoromethyl)benzoyl]piperazine-1-carboxylate]",41.4 µM,35.2 µM,
1.04 µM,6.39 ×10⁻⁶ cm/s,"O=C(Nc1ccccc1N1CCNCC1)c1cccc(C(F)(F)F)c1Oc1ccc(F)cc1 [Compound 53, 2-(4-Fluorophenoxy)-N-[2-(piperazin-1-yl)phenyl]-3-(trifluoromethyl)benzamide]",13.5 µM,4.1 µM,
11.1 µM,0.26 ×10⁻⁶ cm/s,"CC(=O)Nc1ccc(Oc2c(C(=O)Nc3ccccc3N3CCNCC3)cccc2C(F)(F)F)cc1 [Compound 54, 2-(4-Acetamidophenoxy)-N-[2-(piperazin-1-yl)phenyl]-3-(trifluoromethyl) benzamide]",13.2 µM,,
5.45 µM,7.03 ×10⁻⁶ cm/s,"O=C(Nc1cccc(N2CCNCC2)c1)c1cccc(C(F)(F)F)c1Oc1ccc(F)cc1 [Compound 56, 2-(4-Fluorophenoxy)-N-[3-(piperazin-1-yl)phenyl]-3-(trifluoromethyl)benzamide]",34.2 µM,12.7 µM,"MBC (A. baumannii ATCC 19606; ATCC19606): 256 µg/mL; MIC (A. baumannii ATCC 19606; ATCC19606, read-out: MIC): 128 µg/mL; MBC (B. subtilis 168a): 256 µg/mL; MIC (B. subtilis 168a; read-out: MIC): 128 µg/mL; MBC (S. marcescens NCTC 9940): > 256 µg/mL; MIC (S. marcescens NCTC 9940): 256 µg/mL; MBC (S. aureus JE2 USA 300): 256 µg/mL; MIC (S. aureus JE2 USA 300): 256 µg/mL; MBC [4]: > 256 µg/mL; MIC [4]: > 256 µg/mL; MBC (P. aeruginosa NCTC 13437): > 256 µg/mL; MIC (P. aeruginosa NCTC 13437): 256 µg/mL; MBC (E. coli NCTC 13353; NCTC13353): > 256 µg/mL; MIC (E. coli NCTC 13353; NCTC13353, read-out: MIC): 256 µg/mL"
15.7 µM,,"CC(=O)Nc1ccc(Oc2c(C(=O)Nc3ccc(N4CCNCC4)cc3)cccc2C(F)(F)F)cc1 [Compound 63, 2-(4-Acetamidophenoxy)-N-[4-(piperazin-1-yl)phenyl]-3-(trifluoromethyl)benzamide]",113 µM,,
